The numbers were not newly measured in patent publication US12350135B2, “Absorbent article with odor control composition” (The Procter & Gamble Company, priority 2021, dated 2025), which cites them from elsewhere.

The structures appear in SMILES notation. Where a name gives a salt, the structure may show the parent alone.

For the series the following is noted: for water solubility: in water.

Take `OCCOc1ccccc1` [2-phenoxyethanol]: the water solubility result was “about 2.67%”.
Take `OCCc1ccccc1` [2-phenylethanol]: the water solubility entry is given as “about 2%”.
For the compound `O=[N+]([O-])C1(Br)COCOC1` [Bronidox L, 5-bromo-5-nitro-1,3-dioxane], the water solubility result is given as “about 0.46%”.
Take `CC1(C)C(=O)N(CO)C(=O)N1CO` [DMDM hydantoin, 1,3-bis(hydroxymethyl)-5,5-dimethyI-2,4-imidazolidinedione]: the water solubility result is recorded as “more than 50%”.
As for `ClC=CC[N+]12CN3CN(CN(C3)C1)C2.[Cl-]` [Dowicil 200, 1-(3-Chlorallyl)-3,5,7-triaza-1-azoniaadamantane chloride], the “solubility in water (in words)” value was “freely soluble in water”.
Take `OCc1ccccc1` [benzyl alcohol]: the water solubility result is “about 4%”.
With `[H]/N=C(\N/C(=N/[H])NCCCCCCNC(=N)NC(=N)Nc1ccc(Cl)cc1)Nc1ccc(Cl)cc1` [chlorhexidine diacetate salt, 1,1′-hexamethylene bis(5-(p-chlorophenyl)biguanide), reference compound], the water solubility result is “about 1.8%”.
`[H]/N=C(\N/C(=N/[H])NCCCCCCNC(=N)NC(=N)Nc1ccc(Cl)cc1)Nc1ccc(Cl)cc1` [chlorhexidine digluconate salt, 1,1′-hexamethylene bis(5-(p-chlorophenyl)biguanide), reference compound]: the water solubility entry is given as “about 70%”.
Regarding `CC(C)(O)C(Cl)(Cl)Cl` [chlorobutanol, 1,1,1,-Trichloro-2-methylpropan-2-ol], the water solubility entry is “about 0.8%”.
In the case of `[Na+].[O-][n+]1ccccc1[S-]` [sodium pyrithione], the water solubility result is “about 50%”.
